Measurements published in ChEMBL document CHEMBL4011620, “Design and Discovery of N-(2-Methyl-5'-morpholino-6'-((tetrahydro-2H-pyran-4-yl)oxy)-[3,3'-bipyridin]-5-yl)-3-(trifluoromethyl)benzamide (RAF709): A Potent, Selective, and Efficacious RAF Inhibitor Targeting RAS Mutant Cancers” (J Med Chem, 2017).
Values after ≈ are worked out from the molar mass of the structure shown.

What was measured:
[1] = Apparent permeability across apical to basolateral side in human Caco2 cells at pH 7.4 by LC/MS/MS analysis; settings: Caco-2, pH 7.4
[2] = test system: Calu-6; assay: Antiproliferative activity against human Calu6 cells harboring KRAS Q61K mutant assessed as reduction cell viability after 72 hrs by CellTiter-Glo assay; format: functional, cell-based; settings: Calu-6, 72 h
[3] = Apparent permeability across basolateral to apical side in human Caco2 cells at pH 7.4 by LC/MS/MS analysis; settings: Caco-2, pH 7.4
[4] = target: T1, RAF proto-oncogene serine/threonine-protein kinase (Homo sapiens, UniProt P04049); assay: Inhibition CRAF in human Calu6 cells assessed as decrease in MEK phosphorylation after 2 hrs by HTRF method; format: cell-based
[5] = Intrinsic clearance in human liver microsomes; format: ADME, microsome; settings: read-out: CLH
[6] = Solubility of compound at pH 6.8 by shake-flask assay; settings: buffer
[7] = target: RAF proto-oncogene serine/threonine-protein kinase (Homo sapiens, UniProt P04049, Y340E/Y341E); assay: Inhibition of CRAF Y340E/Y341E mutant (unknown origin) using human MEK1 K97R mutant as substrate pretreated for 30 mins followed by substrate addition measured after 40 mins by alphascreen assay
[8] = target: T1, RAF proto-oncogene serine/threonine-protein kinase; assay: Activation of CRAF in human Calu6 cells assessed as increase in MEK phosphorylation at 3 uM after 2 hrs by FRET assay; format: cell-based
[9] = Intrinsic clearance in rat liver microsomes; format: ADME, microsome; settings: read-out: CLH
[10] = Clearance in Sprague-Dawley rat 1 mg/kg, iv or 3 mg/kg, po; format: ADME, organism-based; settings: in vivo
[11] = AUC in Sprague-Dawley rat at 3 mg/kg, po; format: ADME, organism-based; settings: in vivo
[12] = Oral bioavailability in Sprague-Dawley rat at 3 mg/kg; format: ADME, organism-based; settings: in vivo
[13] = target: Platelet-derived growth factor receptor alpha (Homo sapiens) (UniProt P16234); assay: Binding affinity to human PDGFRalpha (330 to 640 residues) expressed in mammalian expression system at 1 uM by kinome scan assay relative to control
[14] = target: Serine/threonine-protein kinase B-raf (Homo sapiens, UniProt P15056); assay: Binding affinity to human BRAF (429 to 741 residues) expressed in mammalian expression system at 1 uM by kinome scan assay relative to control
[15] = Cmax in Sprague-Dawley rat at 3 mg/kg, po; format: ADME, organism-based; parameters: dose 3 mg/kg, route oral; settings: in vivo
[16] = test system: Serine/threonine-protein kinase B-raf (Homo sapiens), P15056 [V600E]; assay: Binding affinity to human BRAF V600E mutant (429 to 741 residues) expressed in mammalian expression system at 1 uM by kinome scan assay relative to control
Sequence of Serine/threonine-protein kinase B-raf (Homo sapiens), P15056 [V600E] (P15056 whole entry V600E, the tested form may be a part): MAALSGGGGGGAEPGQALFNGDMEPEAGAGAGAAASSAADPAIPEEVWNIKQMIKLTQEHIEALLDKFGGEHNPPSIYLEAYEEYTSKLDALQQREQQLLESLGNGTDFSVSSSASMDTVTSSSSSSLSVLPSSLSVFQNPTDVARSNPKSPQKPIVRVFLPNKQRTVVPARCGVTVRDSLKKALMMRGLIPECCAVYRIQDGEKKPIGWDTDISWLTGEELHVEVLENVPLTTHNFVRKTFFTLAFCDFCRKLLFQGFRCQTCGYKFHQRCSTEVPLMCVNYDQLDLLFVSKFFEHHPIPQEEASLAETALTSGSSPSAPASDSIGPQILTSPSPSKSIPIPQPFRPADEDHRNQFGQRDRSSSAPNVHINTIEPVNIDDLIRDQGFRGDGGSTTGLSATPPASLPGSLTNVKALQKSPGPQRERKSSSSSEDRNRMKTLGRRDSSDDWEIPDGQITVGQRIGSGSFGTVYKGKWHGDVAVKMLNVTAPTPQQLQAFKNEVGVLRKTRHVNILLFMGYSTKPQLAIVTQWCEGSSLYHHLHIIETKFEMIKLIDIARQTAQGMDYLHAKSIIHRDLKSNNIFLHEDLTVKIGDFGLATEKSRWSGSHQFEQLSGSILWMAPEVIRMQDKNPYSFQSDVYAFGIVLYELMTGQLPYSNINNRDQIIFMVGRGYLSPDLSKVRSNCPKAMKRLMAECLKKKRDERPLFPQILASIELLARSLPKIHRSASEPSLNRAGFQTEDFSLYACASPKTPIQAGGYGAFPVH

Sequence of RAF proto-oncogene serine/threonine-protein kinase (Homo sapiens, UniProt P04049, Y340E/Y341E) (P04049 whole entry Y340E/Y341E): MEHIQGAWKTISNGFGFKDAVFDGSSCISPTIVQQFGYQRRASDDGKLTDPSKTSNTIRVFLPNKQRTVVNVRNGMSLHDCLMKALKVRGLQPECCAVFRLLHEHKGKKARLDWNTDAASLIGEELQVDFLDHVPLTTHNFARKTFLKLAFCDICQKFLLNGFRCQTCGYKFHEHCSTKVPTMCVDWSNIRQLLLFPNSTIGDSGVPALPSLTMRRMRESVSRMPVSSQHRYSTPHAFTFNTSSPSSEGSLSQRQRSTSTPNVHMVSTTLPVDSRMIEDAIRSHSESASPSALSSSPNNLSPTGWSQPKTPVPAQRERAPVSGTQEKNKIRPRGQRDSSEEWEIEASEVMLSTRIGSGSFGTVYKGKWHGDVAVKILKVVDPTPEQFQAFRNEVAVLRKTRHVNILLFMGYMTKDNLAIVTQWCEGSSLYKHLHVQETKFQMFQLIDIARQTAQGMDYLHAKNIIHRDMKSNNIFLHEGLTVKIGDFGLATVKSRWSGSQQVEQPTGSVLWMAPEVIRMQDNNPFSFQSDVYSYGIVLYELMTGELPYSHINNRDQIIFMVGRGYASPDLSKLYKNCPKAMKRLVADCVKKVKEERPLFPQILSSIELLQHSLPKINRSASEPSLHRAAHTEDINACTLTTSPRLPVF
T1 sequence (P04049 whole entry): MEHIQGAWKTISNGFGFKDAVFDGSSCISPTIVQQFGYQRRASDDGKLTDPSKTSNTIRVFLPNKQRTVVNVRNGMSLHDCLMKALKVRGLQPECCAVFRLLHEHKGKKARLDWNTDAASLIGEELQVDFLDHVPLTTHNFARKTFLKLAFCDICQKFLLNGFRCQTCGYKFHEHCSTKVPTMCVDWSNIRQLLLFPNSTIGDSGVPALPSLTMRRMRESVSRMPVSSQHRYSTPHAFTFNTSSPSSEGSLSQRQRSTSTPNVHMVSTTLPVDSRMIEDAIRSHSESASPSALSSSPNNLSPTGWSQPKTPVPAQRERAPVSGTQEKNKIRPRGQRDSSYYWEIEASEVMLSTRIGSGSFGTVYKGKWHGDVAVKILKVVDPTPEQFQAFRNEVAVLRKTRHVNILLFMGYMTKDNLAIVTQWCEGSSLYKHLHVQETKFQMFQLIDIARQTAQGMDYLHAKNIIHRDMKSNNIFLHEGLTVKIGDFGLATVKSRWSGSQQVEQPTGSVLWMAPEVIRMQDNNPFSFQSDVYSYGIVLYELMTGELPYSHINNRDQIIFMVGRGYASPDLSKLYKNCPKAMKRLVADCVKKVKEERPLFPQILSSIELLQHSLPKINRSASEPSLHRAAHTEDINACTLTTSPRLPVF
Sequence of Platelet-derived growth factor receptor alpha (Homo sapiens) (P16234 whole entry, the tested form may be a part): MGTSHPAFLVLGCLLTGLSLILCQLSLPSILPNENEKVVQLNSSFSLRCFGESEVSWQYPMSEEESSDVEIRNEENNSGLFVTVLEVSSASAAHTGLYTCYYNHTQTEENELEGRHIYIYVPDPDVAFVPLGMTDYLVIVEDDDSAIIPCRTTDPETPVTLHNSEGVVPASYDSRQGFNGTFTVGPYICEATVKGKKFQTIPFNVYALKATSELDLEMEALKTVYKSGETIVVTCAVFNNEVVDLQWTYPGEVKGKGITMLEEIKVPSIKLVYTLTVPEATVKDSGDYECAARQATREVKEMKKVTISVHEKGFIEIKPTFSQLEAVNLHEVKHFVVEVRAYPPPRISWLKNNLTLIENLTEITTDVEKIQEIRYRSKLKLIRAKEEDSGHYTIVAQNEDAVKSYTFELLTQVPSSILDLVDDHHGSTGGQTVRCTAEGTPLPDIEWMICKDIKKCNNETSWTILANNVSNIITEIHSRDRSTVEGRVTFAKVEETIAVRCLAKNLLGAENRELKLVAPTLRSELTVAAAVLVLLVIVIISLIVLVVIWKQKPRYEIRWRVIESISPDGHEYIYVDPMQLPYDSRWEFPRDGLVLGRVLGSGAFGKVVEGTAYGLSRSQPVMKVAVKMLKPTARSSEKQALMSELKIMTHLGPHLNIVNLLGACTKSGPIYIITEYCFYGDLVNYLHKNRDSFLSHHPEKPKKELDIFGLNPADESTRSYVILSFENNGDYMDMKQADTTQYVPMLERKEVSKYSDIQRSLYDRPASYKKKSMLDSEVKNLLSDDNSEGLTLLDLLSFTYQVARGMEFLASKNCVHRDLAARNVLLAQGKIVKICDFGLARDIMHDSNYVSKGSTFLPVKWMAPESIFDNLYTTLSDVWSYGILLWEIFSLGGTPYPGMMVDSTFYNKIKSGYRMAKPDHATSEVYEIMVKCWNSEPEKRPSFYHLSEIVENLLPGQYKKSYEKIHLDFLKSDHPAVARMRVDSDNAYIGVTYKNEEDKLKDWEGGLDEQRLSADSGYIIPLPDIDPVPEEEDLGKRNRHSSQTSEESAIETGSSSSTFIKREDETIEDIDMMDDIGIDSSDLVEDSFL
Sequence of Serine/threonine-protein kinase B-raf (P15056 whole entry, the tested form may be a part): as the sequence (P15056 whole entry V600E, the tested form may be a part) above, with E600V counted along it

Row | Structure (SMILES) | Papp A→B [1] [×10⁻⁶ cm/s] | EC50 [2] [nM] | Papp B→A [3] [×10⁻⁶ cm/s] | EC50 [4] [nM] | microsomal CLint [5] [µL/min/mg] | solubility thermodynamic [6] [µM] | other results
1 | Cc1ncc(NC(=O)c2cccc(C(F)(F)F)c2)cc1-c1cnc(OCCO)c(N2CCOCC2)c1 | 5 | 2500 | 45 | – | – | 24 (≈ 12.1 µg/mL) | –
2 | CCCS(=O)(=O)Nc1ccc(F)c(C(=O)c2c[nH]c3ncc(-c4ccc(Cl)cc4)cc23)c1F [VEMURAFENIB] | – | – | – | – | – | – | Activity [8]: Active
3 | Cc1ccc(NC(=O)c2cccc(C(F)(F)F)c2)cc1-c1cc(N2CCOCC2)ncn1 | 19 | 5200 | 38 | – | 43 | 16 (≈ 7.08 µg/mL) | microsomal CLint [9]: 79 µL/min/mg
4 | COc1ncc(-c2cc(NC(=O)c3cccc(C(F)(F)F)c3)cnc2C)cc1N1CCOCC1 | 16 | 1600 | 14 | – | – | < 2 | –
5 | Cc1ccc(C(=O)Nc2cccc(C(F)(F)F)c2)cc1-c1cc(N2CCOCC2)ncn1 | – | 3100 | – | 700 | – | – | IC50 [7]: 2 nM
6 | Cc1ccc(NC(=O)c2cccc(C(F)(F)F)c2)cc1-c1cc(N2CCOCC2)c(=O)n(C)c1 | 20 | 500 | 22 | – | 51 | 70 (≈ 33 µg/mL) | clearance [10]: 53 mL/min/kg; AUC [11]: 0.438 µM·h; bioavailability [12]: 22%; Activity [13]: 89%; Activity [14]: > 99%; Cmax [15]: 150 nM; microsomal CLint [9]: 46 µL/min/mg; Activity [16]: > 99%

Further lines, with some results ahead:

Row | Papp A→B [1] [×10⁻⁶ cm/s] | EC50 [2] [nM] | Papp B→A [3] [×10⁻⁶ cm/s] | EC50 [4] [nM] | microsomal CLint [5] [µL/min/mg] | solubility thermodynamic [6] [µM] | Structure (SMILES) | other results
7 | 21 | 4100 | 16 | 200 | 110 | 190 (≈ 89.8 µg/mL) | Cc1ccc(NC(=O)c2cccc(C(F)(F)F)c2)cc1-c1cn(C)c(=O)c(N2CCOCC2)n1 | –
8 | 3 | > 30000 | 39 | 3960 | < 7.7 | 1040 (≈ 492 µg/mL) | Cc1ncc(NC(=O)c2ccnc(C(F)(F)F)c2)cc1-c1cc(N2CCOCC2)c(=O)n(C)c1 | IC50 [7]: 1 nM
9 | 15 | 6400 | 15 | 200 | 170 | 20 (≈ 8.61 µg/mL) | Cc1ccc(C(=O)Nc2cccc(C(C)(C)C)c2)cc1-c1cc(N2CCOCC2)ncn1 | IC50 [7]: 0.5 nM; microsomal CLint [9]: 210 µL/min/mg
10 | – | 2900 | – | – | – | < 2 | Cc1ncc(NC(=O)c2cccc(C(F)(F)F)c2)cc1-c1cnc(OC(C)C)c(N2CCOCC2)c1 | –
11 | 7 | 1800 | 43 | 460 | < 7.7 | 20 (≈ 9.45 µg/mL) | Cc1ncc(NC(=O)c2cccc(C(F)(F)F)c2)cc1-c1cc(N2CCOCC2)c(=O)n(C)c1 | –
12 | – | 700 | 1.8 | 200 | – | < 2 | Cc1ccc(NC(=O)c2cccc(C(F)(F)F)c2)cc1-c1ccnc(N2CCOCC2)c1 | –
